Measurements taken from ChEMBL document CHEMBL1201861, “Genomics of Drug Sensitity in Cancer screening data, Wellcome Trust Sanger Institute”.

What was measured:
Experiment in all cases: cells
[1] = system: COR-L88; type: functional, cell-based, Homo sapiens; settings: Homo sapiens, COR-L88;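 also: growth inhibition of COR-L88 cells, read out with a cell viability assay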
Description: SANGER: Inhibition of human COR-L88 cell growth in a cell viability assay.

[2] = system: CTB-1; type: functional, cell-based, Homo sapiens; settings: Homo sapiens, CTB-1
Description: SANGER: Inhibition of human CTB-1 cell growth in a cell viability assay.

[3] = system: CW-2; type: functional, cell-based, Homo sapiens; settings: Homo sapiens, CW-2;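 also: growth inhibition of CW-2 cells, read out by a cell viability assay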
Description: SANGER: Inhibition of human CW-2 cell growth in a cell viability assay.

[4] = system: DMS-79; type: functional, cell-based, Homo sapiens; settings: Homo sapiens, DMS-79;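 also: growth inhibition measured with a cell viability assay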
Description: SANGER: Inhibition of human DMS-79 cell growth in a cell viability assay.

[5] = system: DSH1; type: functional, cell-based, Homo sapiens; settings: Homo sapiens, DSH1;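 also: growth inhibition of human DSH1 cells, measured with a cell viability readout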
Description: SANGER: Inhibition of human DSH1 cell growth in a cell viability assay.

[6] = system: ES3; type: functional, cell-based, Homo sapiens; settings: Homo sapiens, ES3;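 also: growth inhibition of ES3 cells, read out with a cell viability assay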
Description: SANGER: Inhibition of human ES3 cell growth in a cell viability assay.

[7] = system: EW-11; type: functional, cell-based, Homo sapiens; settings: Homo sapiens, EW-11;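 also: growth inhibition of human EW-11 cells, measured with a cell viability assay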
Description: SANGER: Inhibition of human EW-11 cell growth in a cell viability assay.

[8] = system: EW-13; type: functional, cell-based, Homo sapiens; settings: Homo sapiens, EW-13;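 also: growth inhibition of EW-13 cells, read out with a cell viability assay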
Description: SANGER: Inhibition of human EW-13 cell growth in a cell viability assay.

[9] = system: GAK; type: functional, cell-based, Homo sapiens; settings: Homo sapiens, GAK;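 also: cell growth inhibition read out by a cell viability assay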
Description: SANGER: Inhibition of human GAK cell growth in a cell viability assay.

[10] = system: HAL-01; type: functional, cell-based, Homo sapiens; settings: Homo sapiens, HAL-01;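 also: growth inhibition of human HAL-01 cells, read out with a cell viability assay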
Description: SANGER: Inhibition of human HAL-01 cell growth in a cell viability assay.

[11] = system: HCC 2998; type: functional, cell-based, Homo sapiens; settings: Homo sapiens, HCC 2998;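 also: growth inhibition of human HCC2998 cells, measured with a cell viability read-out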
Description: SANGER: Inhibition of human HCC2998 cell growth in a cell viability assay.

[12] = system: HD-MY-Z; type: functional, cell-based, Homo sapiens; settings: Homo sapiens, HD-MY-Z;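 also: growth inhibition of HD-MY-Z cells, read out with a cell viability assay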
Description: SANGER: Inhibition of human HD-MY-Z cell growth in a cell viability assay.

[13] = system: HH; type: functional, cell-based, Homo sapiens; settings: Homo sapiens, HH
Description: SANGER: Inhibition of human HH cell growth in a cell viability assay.

[14] = system: HL-60; type: functional, cell-based, Homo sapiens; settings: Homo sapiens, HL-60;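 also: growth inhibition of human HL-60 cells, read out with a cell viability assay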
Description: SANGER: Inhibition of human HL-60 cell growth in a cell viability assay.

[15] = system: JAR; type: functional, cell-based, Homo sapiens; settings: Homo sapiens, JAR;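 also: growth inhibition of human JAR cells determined with a cell viability assay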
Description: SANGER: Inhibition of human JAR cell growth in a cell viability assay.

[16] = system: K562; type: functional, cell-based, Homo sapiens; settings: Homo sapiens, K562
Description: SANGER: Inhibition of human K-562 cell growth in a cell viability assay.

[17] = system: KM12; type: functional, cell-based, Homo sapiens; settings: Homo sapiens, KM12;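 also: KM12 cell growth inhibition, read out with a cell viability assay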
Description: SANGER: Inhibition of human KM12 cell growth in a cell viability assay.

[18] = system: KMOE-2; type: functional, cell-based, Homo sapiens; settings: Homo sapiens, KMOE-2;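 also: growth inhibition of human KMOE-2 cells, read out with a cell viability assay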
Description: SANGER: Inhibition of human KMOE-2 cell growth in a cell viability assay.

[19] = system: KU812 cell line; type: functional, cell-based, Homo sapiens; settings: Homo sapiens, KU812;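 also: growth inhibition of KU812 cells, read out with a cell viability assay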
Description: SANGER: Inhibition of human KU812 cell growth in a cell viability assay.

[20] = system: KURAMOCHI; type: functional, cell-based, Homo sapiens; settings: Homo sapiens, KURAMOCHI;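 also: growth inhibition of KURAMOCHI cells, read out with a cell viability assay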
Description: SANGER: Inhibition of human KURAMOCHI cell growth in a cell viability assay.

[21] = system: LAMA-84; type: functional, cell-based, Homo sapiens; settings: Homo sapiens, LAMA-84;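 also: growth inhibition of LAMA-84 cells, read out with a cell viability assay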
Description: SANGER: Inhibition of human LAMA-84 cell growth in a cell viability assay.

[22] = system: LC-2-ad; type: functional, cell-based, Homo sapiens; settings: Homo sapiens, LC-2-ad;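 also: growth inhibition of human LC-2-ad cells, read out with a cell viability assay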
Description: SANGER: Inhibition of human LC-2-ad cell growth in a cell viability assay.

[23] = system: LS-123; type: functional, cell-based, Homo sapiens; settings: Homo sapiens, LS-123
Description: SANGER: Inhibition of human LS-123 cell growth in a cell viability assay.

[24] = system: LS-513; type: functional, cell-based, Homo sapiens; settings: Homo sapiens, LS-513
Description: SANGER: Inhibition of human LS-513 cell growth in a cell viability assay.

[25] = system: MC116; type: functional, cell-based, Homo sapiens; settings: Homo sapiens, MC116;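 also: growth inhibition of MC116 cells, read out with a cell viability assay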
Description: SANGER: Inhibition of human MC116 cell growth in a cell viability assay.

[26] = system: MFM-223; type: functional, cell-based, Homo sapiens; settings: Homo sapiens, MFM-223
Description: SANGER: Inhibition of human MFM-223 cell growth in a cell viability assay.

[27] = system: MLMA; type: functional, cell-based, Homo sapiens; settings: Homo sapiens, MLMA;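 also: growth inhibition of MLMA cells (human), determined through a cell viability readout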
Description: SANGER: Inhibition of human MLMA cell growth in a cell viability assay.

[28] = system: MS-1; type: functional, cell-based, Homo sapiens; settings: Homo sapiens, MS-1;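 also: growth inhibition of MS-1 cells, read out by cell viability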
Description: SANGER: Inhibition of human MS-1 cell growth in a cell viability assay.

[29] = system: NCI-H1092; type: functional, cell-based, Homo sapiens; settings: Homo sapiens, NCI-H1092;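 also: cell growth inhibition measured with a cell viability assay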
Description: SANGER: Inhibition of human NCI-H1092 cell growth in a cell viability assay.

[30] = system: NCI-H69; type: functional, cell-based, Homo sapiens; settings: Homo sapiens, NCI-H69;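 also: growth inhibition of the cell line, read out with a cell viability assay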
Description: SANGER: Inhibition of human NCI-H69 cell growth in a cell viability assay.

[31] = system: NH-12; type: functional, cell-based, Homo sapiens; settings: Homo sapiens, NH-12;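 also: growth inhibition of NH-12 cells, read out with a cell viability assay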
Description: SANGER: Inhibition of human NH-12 cell growth in a cell viability assay.

[32] = system: OCUB-M; type: functional, cell-based, Homo sapiens; settings: Homo sapiens, OCUB-M;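 also: growth inhibition of the cancer cell line, read out through a cell viability assay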
Description: SANGER: Inhibition of human OCUB-M cell growth in a cell viability assay.

[33] = system: ONS-76; type: functional, cell-based, Homo sapiens; settings: Homo sapiens, ONS-76;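 also: growth inhibition of human ONS-76 cells, read out with a cell viability assay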
Description: SANGER: Inhibition of human ONS-76 cell growth in a cell viability assay.

[34] = system: OS-RC-2; type: functional, cell-based, Homo sapiens; settings: Homo sapiens, OS-RC-2;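 also: growth inhibition of human OS-RC-2 cells, measured by a cell viability assay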
Description: SANGER: Inhibition of human OS-RC-2 cell growth in a cell viability assay.

[35] = system: P30-OHK; type: functional, cell-based, Homo sapiens; settings: Homo sapiens, P30-OHK;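 also: growth inhibition of the P30-OHK cell line, read out with a cell viability assay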
Description: SANGER: Inhibition of human P30-OHK cell growth in a cell viability assay.

[36] = system: QIMR-WIL; type: functional, cell-based, Homo sapiens; settings: Homo sapiens, QIMR-WIL;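 also: growth inhibition of QIMR-WIL cells, read out with a cell viability assay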
Description: SANGER: Inhibition of human QIMR-WIL cell growth in a cell viability assay.

[37] = system: SBC-1; type: functional, cell-based, Homo sapiens; settings: Homo sapiens, SBC-1;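 also: cell viability assay measuring growth inhibition of the SBC-1 cell line, IC50 being the concentration that halves growth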
Description: SANGER: Inhibition of human SBC-1 cell growth in a cell viability assay.

[38] = system: SK-MEL-2; type: functional, cell-based, Homo sapiens; settings: Homo sapiens, SK-MEL-2;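 also: growth inhibition of human SK-MEL-2 cells measured with a cell viability assay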
Description: SANGER: Inhibition of human SK-MEL-2 cell growth in a cell viability assay.

[39] = system: SK-UT-1; type: functional, cell-based, Homo sapiens; settings: Homo sapiens, SK-UT-1;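 also: growth inhibition of SK-UT-1 cells, measured by a cell viability assay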
Description: SANGER: Inhibition of human SK-UT-1 cell growth in a cell viability assay.

[40] = system: SNU-C2B; type: functional, cell-based, Homo sapiens; settings: Homo sapiens, SNU-C2B;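 also: cell viability readout used to measure compound-driven suppression of SNU-C2B cell proliferation, IC50 marking half-maximal growth inhibition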
Description: SANGER: Inhibition of human SNU-C2B cell growth in a cell viability assay.

[41] = system: SW982; type: functional, cell-based, Homo sapiens; settings: Homo sapiens, SW982;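 also: growth inhibition of SW982 cells, read out with a cell viability assay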
Description: SANGER: Inhibition of human SW982 cell growth in a cell viability assay.

[42] = system: 8-MG-BA; type: functional, cell-based, Homo sapiens; settings: Homo sapiens, 8-MG-BA;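 also: growth inhibition of 8-MG-BA cells, read out with a cell viability assay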
Description: SANGER: Inhibition of human 8-MG-BA cell growth in a cell viability assay.

[43] = system: A388; type: functional, cell-based, Homo sapiens; settings: Homo sapiens, A388;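 also: growth inhibition of human A388 cells, read out with a cell viability assay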
Description: SANGER: Inhibition of human A388 cell growth in a cell viability assay.

[44] = system: TGBC1TKB; type: functional, cell-based, Homo sapiens; settings: Homo sapiens, TGBC1TKB;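 also: growth inhibition of TGBC1TKB cells, read out by a cell viability assay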
Description: SANGER: Inhibition of human TGBC1TKB cell growth in a cell viability assay.

[45] = system: TGW; type: functional, cell-based, Homo sapiens; settings: Homo sapiens, TGW;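 also: growth inhibition of human TGW cells, read out with a cell viability assay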
Description: SANGER: Inhibition of human TGW cell growth in a cell viability assay.

[46] = system: U-87 MG; type: functional, cell-based, Homo sapiens, U-87MG ATCC; settings: Homo sapiens, U-87 MG;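 also: growth inhibition of the cells measured with a viability assay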
Description: SANGER: Inhibition of human U-87-MG cell growth in a cell viability assay.

[47] = system: CGTH-W-1; type: functional, cell-based, Homo sapiens; settings: Homo sapiens, CGTH-W-1;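 also: growth inhibition of human CGTH-W-1 cells measured by cell viability assay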
Description: SANGER: Inhibition of human CGTH-W-1 cell growth in a cell viability assay.

[48] = system: COLO-668; type: functional, cell-based, Homo sapiens; settings: Homo sapiens, COLO-668
Description: SANGER: Inhibition of human COLO-668 cell growth in a cell viability assay.

SMILES: Cc1cc([N+](=O)[O-])ccc1NS(=O)(=O)c1cc(Cl)ccc1Cl
- IC50 [1]: > 32000 nM
- IC50 [2]: 30500 nM
- IC50 [3]: > 32000 nM
- IC50 [4]: > 32000 nM
- IC50 [5]: 949 nM
- IC50 [6]: 7720 nM
- IC50 [7]: > 32000 nM
- IC50 [8]: 6040 nM
- IC50 [9]: 2010 nM
- IC50 [10]: 12400 nM
- IC50 [11]: 3150 nM
- IC50 [12]: 14300 nM
- IC50 [13]: 15200 nM
- IC50 [14]: 3790 nM
- IC50 [15]: 23000 nM
- IC50 [16]: 26900 nM
- IC50 [17]: 5990 nM
- IC50 [18]: 3840 nM
- IC50 [19]: 7200 nM
- IC50 [20]: 1330 nM
- IC50 [21]: 6090 nM
- IC50 [22]: 4630 nM
- IC50 [23]: 9220 nM
- IC50 [24]: 14500 nM
- IC50 [25]: 3140 nM
- IC50 [26]: > 32000 nM
- IC50 [27]: 8960 nM
- IC50 [28]: 16400 nM
- IC50 [29]: > 32000 nM
- IC50 [30]: > 32000 nM
- IC50 [31]: 14600 nM
- IC50 [32]: 810 nM
- IC50 [33]: 6440 nM
- IC50 [34]: 6750 nM
- IC50 [35]: > 32000 nM
- IC50 [36]: 6820 nM
- IC50 [37]: > 32000 nM
- IC50 [38]: 1720 nM
- IC50 [39]: 1960 nM
- IC50 [40]: 4290 nM
- IC50 [41]: 9220 nM
- IC50 [42]: 3700 nM
- IC50 [43]: 4930 nM
- IC50 [44]: 8370 nM
- IC50 [45]: > 32000 nM
- IC50 [46]: 22400 nM
- IC50 [47]: 11900 nM
- IC50 [48]: 4480 nM

SMILES: COc1cccc2c1C(=O)c1c(O)c3c(c(O)c1C2=O)C[C@@](O)(C(=O)CO)C[C@@H]3O[C@H]1C[C@H](N)[C@H](O)[C@H](C)O1 [DOXORUBICIN]
- IC50 [1]: > 1020 nM
- IC50 [2]: 64.2 nM
- IC50 [3]: > 1020 nM
- IC50 [4]: > 1020 nM
- IC50 [5]: 373 nM
- IC50 [6]: 89.5 nM
- IC50 [7]: 342 nM
- IC50 [8]: 9.63 nM
- IC50 [9]: 257 nM
- IC50 [10]: 313 nM
- IC50 [11]: 17.4 nM
- IC50 [12]: 273 nM
- IC50 [13]: 241 nM
- IC50 [14]: 62.6 nM
- IC50 [15]: 626 nM
- IC50 [16]: 386 nM
- IC50 [17]: 218 nM
- IC50 [18]: 576 nM
- IC50 [19]: 33.2 nM
- IC50 [20]: 127 nM
- IC50 [21]: 437 nM
- IC50 [22]: 5.07 nM
- IC50 [23]: 18.5 nM
- IC50 [24]: > 1020 nM
- IC50 [25]: 391 nM
- IC50 [26]: > 1020 nM
- IC50 [27]: 122 nM
- IC50 [28]: 253 nM
- IC50 [29]: 738 nM
- IC50 [30]: 569 nM
- IC50 [31]: 76 nM
- IC50 [32]: 15.2 nM
- IC50 [33]: 18.9 nM
- IC50 [34]: 182 nM
- IC50 [35]: 57.6 nM
- IC50 [36]: 20.7 nM
- IC50 [37]: 156 nM
- IC50 [38]: 230 nM
- IC50 [39]: 20 nM
- IC50 [40]: 461 nM
- IC50 [41]: 6.05 nM
- IC50 [42]: 22.1 nM
- IC50 [43]: 28.5 nM
- IC50 [44]: > 1020 nM
- IC50 [45]: > 1020 nM
- IC50 [46]: 346 nM
- IC50 [47]: 53.5 nM
- IC50 [48]: 84.5 nM
